Laboratory results taken from patent US9409905B2, “Antibacterial compounds and methods for use” (PTC THERAPEUTICS, INC., priority 2011, dated 2016).

Tests used:
[1] = tested on: Escherichia coli (E. coli) BAS849; assay: Antibacterial activity, microbroth dilution MIC (Table 1); format: cell-based; details: microbroth dilution, super sensitive Gram-negative E. coli BAS849, read-out: MIC, BAS849
How it was run: (§1)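 In a microbroth dilution test, the minimum inhibitory concentration was defined as the lowest compound level preventing growth seen by eye, and was given in μg/mL.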

[2] = tested on: Staphylococcus aureus (S. aureus) 29213; assay: as above; format: cell-based; details: microbroth dilution, Gram-positive S. aureus 29213, read-out: MIC, 29213
How it was run: as §1

E. coli 25922 = assay: as above; format: cell-based, Escherichia coli; details: Escherichia coli; microbroth dilution; control Gram-negative E. coli 25922 strain; read-out: MIC, 25922
How it was run: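 Broth microdilution; endpoint = no macroscopic growth; value = lowest inhibiting concn, μg/mL.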

E. coli LZ3111 = assay: Antibacterial activity, MIC, quinolone resistant strain (Table 2); format: cell-based; details: Escherichia coli, LZ3111, read-out: MIC LZ3111
How it was run: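 Strain carries mutations conferring high-level quinolone resistance; tested by microbroth dilution, MIC recorded in μg/mL as lowest concentration preventing visible growth.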

E. coli ELZ4000 = assay: Antibacterial activity, MIC, multi-drug resistant clinical isolate (Table 3); format: cell-based; details: Escherichia coli, ELZ4000, read-out: MIC ELZ4000
How it was run: (§2)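 Microbroth dilution. Endpoint: absence of macroscopically visible growth. Value = MIC, μg/mL.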

E. coli ELZ4251 = assay: as above; format: cell-based; details: Escherichia coli
How it was run: as §2

[3] = tested on: Acinetobacter baumannii (A. baumannii) BAA747; assay: Antibacterial activity, MIC (Table 4); format: cell-based; details: A. baumannii BAA747, read-out: MIC, BAA747
How it was run: (§3)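 Compounds are serially diluted in microbroth, bacteria are grown under the test conditions, and growth is then inspected macroscopically. The lowest concentration without visible growth is reported as the MIC (μg/mL).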

[4] = tested on: Klebsiella pneumoniae (K. pneumoniae) 35657; assay: Antibacterial activity, MIC (Table 4); format: cell-based; details: K. pneumoniae 35657, read-out: MIC, 35657
How it was run: as §3

A. baumannii MXX2240 = assay: Antibacterial activity, MIC, resistant strain (Table 4); format: cell-based; details: Acinetobacter baumannii, MXX2240; resistant A. baumannii MMX2240, multi-drug resistant clinical isolate; read-out: MIC, MMX2240
How it was run: as §3

K. pneumoniae MXX1232 = assay: as above; format: cell-based; details: Klebsiella pneumoniae, MXX1232; resistant K. pneumoniae MMX1232, multi-drug resistant clinical isolate; read-out: MIC, MMX1232
How it was run: as §3

[5] = tested on: Pseudomonas aeruginosa (P. aeruginosa) 27853; assay: Antibacterial activity, MIC (Table 5); format: cell-based; details: P. aeruginosa 27853, read-out: MIC, 27853
How it was run: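 Compounds are serially diluted in broth and inoculated with the organism. Growth is then inspected macroscopically, and the lowest concentration showing none is taken as the MIC (μg/mL).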

[6] = tested on: Haemophilus influenzae (H. influenzae) 49247; assay: Antibacterial activity, MIC (Table 6); format: cell-based
How it was run: (§4)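 Broth microdilution MIC, read as the lowest drug concentration preventing macroscopically visible growth under test conditions and reported in μg/mL.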

[7] = tested on: Moraxella catarrhalis (M. catarrhalis) 25238; assay: Antibacterial activity, MIC (Table 7); format: cell-based
How it was run: as §4

[8] = tested on: Neisseria meningitidis (N. meningitidis) 13090; assay: Antibacterial activity, MIC (Table 8); format: cell-based
How it was run: as §4

Row | SMILES | MIC [1] [µg/mL] | MIC [2] [µg/mL] | MIC (E. coli 25922) [µg/mL] | MIC (E. coli LZ3111) [µg/mL] | MIC (E. coli ELZ4000) [µg/mL] | MIC (E. coli ELZ4251) [µg/mL] | MIC [3] [µg/mL] | MIC [4] [µg/mL] | MIC (A. baumannii MXX2240) [µg/mL] | MIC (K. pneumoniae MXX1232) [µg/mL] | MIC [5] [µg/mL] | MIC [6] [µg/mL] | MIC [7] [µg/mL] | MIC [8] [µg/mL]
1 | CCc1c(-c2ccc3c(c2)cc(CNCC2CCCN2CC)n3C)[nH]c(=O)c(C(=O)O)c1O.Cl.Cl (stereo not drawn) [Cpd 230, 5-ethyl-6-(2-(((1-ethylpyrrolidin-2-yl)methylamino)methyl)-1-methyl-1H-indol-5-yl)-4-hydroxy-2-oxo-1,2-dihydropyridine-3-carboxylic acid dihydrochloride] | < 1 | 12.5 to 150 | 3.5 to 12.5 | 3.5 to 12.5 | 12.5 to 150 | 12.5 to 150 | 12.5 to 150 | 1 to 3.5 | 12.5 to 150 | 12.5 to 150 | 12.5 to 150 | 3.5 to 12.5 | 3.5 to 12.5 | 1 to 3.5
2 | CCc1c(-c2ccc3c(c2)cc(CNCC2CCCN(C)C2)n3C)[nH]c(=O)c(C(=O)O)c1O.Cl.Cl (stereo not drawn) [Cpd 231, 5-ethyl-4-hydroxy-6-(1-methyl-2-(((1-methylpiperidin-3-yl)methylamino)methyl)-1H-indol-5-yl)-2-oxo-1,2-dihydropyridine-3-carboxylic acid dihydrochloride] | < 1 | 12.5 to 150 | 1 to 3.5 | 1 to 3.5 | 12.5 to 150 | 12.5 to 150 | 3.5 to 12.5 | 1 to 3.5 | 12.5 to 150 | 12.5 to 150 | 12.5 to 150 | 1 to 3.5 | 3.5 to 12.5 | 1 to 3.5
3 | CCc1c(-c2ccc3c(c2)cc(CNC2CCC2)n3C)[nH]c(=O)c(C(=O)O)c1O.Cl [Cpd 232, 6-(2-((cyclobutylamino)methyl)-1-methyl-1H-indol-5-yl)-5-ethyl-4-hydroxy-2-oxo-1,2-dihydropyridine-3-carboxylic acid hydrochloride] | < 1 | 3.5 to 12.5 | < 1 | 1 to 3.5 | 3.5 to 12.5 | 3.5 to 12.5 | < 1 | 1 to 3.5 | 1 to 3.5 | 12.5 to 150 | 3.5 to 12.5 | < 1 | < 1 | < 1
4 | CCc1c(-c2ccc3c(c2)cc(CNCC2CCCCN2C)n3C)[nH]c(=O)c(C(=O)O)c1O.Cl.Cl (stereo not drawn) [Cpd 233, 5-ethyl-4-hydroxy-6-(1-methyl-2-((((1-methylpiperidin-2-yl)methyl)amino)methyl)-1H-indol-5-yl)-2-oxo-1,2-dihydropyridine-3-carboxylic acid dihydrochloride] | < 1 | 12.5 to 150 | 1 to 3.5 | 1 to 3.5 | 12.5 to 150 | 12.5 to 150 | 12.5 to 150 | 1 to 3.5 | 12.5 to 150 | 12.5 to 150 | 12.5 to 150 | 3.5 to 12.5 | 3.5 to 12.5 | 1 to 3.5
5 | CCc1c(-c2ccc3c(c2)cc(CNCC2CCN(C)CC2)n3C)[nH]c(=O)c(C(=O)O)c1O.Cl.Cl [Cpd 234, 5-ethyl-4-hydroxy-6-(1-methyl-2-((((1-methylpiperidin-4-yl)methyl)amino)methyl)-1H-indol-5-yl)-2-oxo-1,2-dihydropyridine-3-carboxylic acid dihydrochloride] | < 1 | 12.5 to 150 | 1 to 3.5 | 1 to 3.5 | 12.5 to 150 | 12.5 to 150 | 12.5 to 150 | 1 to 3.5 | 12.5 to 150 | 12.5 to 150 | 12.5 to 150 | 1 to 3.5 | 3.5 to 12.5 | 1 to 3.5
6 | CCc1c(-c2ccc3c(c2)cc(CNCC2CCC2)n3C)[nH]c(=O)c(C(=O)O)c1O.Cl [Cpd 235, 6-(2-((cyclobutylmethylamino)methyl)-1-methyl-1H-indol-5-yl)-5-ethyl-4-hydroxy-2-oxo-1,2-dihydropyridine-3-carboxylic acid hydrochloride] | < 1 | 3.5 to 12.5 | < 1 | 3.5 to 12.5 | 12.5 to 150 | 3.5 to 12.5 | < 1 | 1 to 3.5 | 3.5 to 12.5 | 12.5 to 150 | 12.5 to 150 | < 1 | < 1 | < 1
7 | CCc1c(-c2ccc3c(c2)cc(CNCC2CCCC2)n3C)[nH]c(=O)c(C(=O)O)c1O.Cl [Cpd 236, 6-(2-((cyclopentylmethylamino)methyl)-1-methyl-1H-indol-5-yl)-5-ethyl-4-hydroxy-2-oxo-1,2-dihydropyridine-3-carboxylic acid hydrochloride] | < 1 | 3.5 to 12.5 | < 1 | 3.5 to 12.5 | 12.5 to 150 | 12.5 to 150 | 1 to 3.5 | 1 to 3.5 | 1 to 3.5 | 12.5 to 150 | 12.5 to 150 | 1 to 3.5 | < 1 | < 1
8 | CCc1c(-c2ccc3c(c2)cc(CN2CCCN(C)CC2)n3C)[nH]c(=O)c(C(=O)O)c1O.Cl.Cl [Cpd 238, 5-ethyl-4-hydroxy-6-(1-methyl-2-((4-methyl-1,4-diazepan-1-yl)methyl)-1H-indol-5-yl)-2-oxo-1,2-dihydropyridine-3-carboxylic acid dihydrochloride] | < 1 | 3.5 to 12.5 | 1 to 3.5 | 1 to 3.5 | 12.5 to 150 | 12.5 to 150 | 3.5 to 12.5 | 1 to 3.5 | 12.5 to 150 | 12.5 to 150 | 12.5 to 150 | < 1 | 1 to 3.5 | < 1
9 | CCc1c(-c2ccc3c(c2)cc(CC2CC2C)n3C)[nH]c(=O)c(C(=O)O)c1O.Cl (stereo not drawn) [Cpd 240, 5-ethyl-4-hydroxy-6-(1-methyl-2-((2-methylcyclopropyl)methyl)-1H-indol-5-yl)-2-oxo-1,2-dihydropyridine-3-carboxylic acid hydrochloride] | < 1 | 3.5 to 12.5 | < 1 | 3.5 to 12.5 | 12.5 to 150 | 3.5 to 12.5 | < 1 | < 1 | 1 to 3.5 | 12.5 to 150 | 3.5 to 12.5 | < 1 | < 1 | < 1
